Experimental findings from patent publication US20240308987A1, “SMALL MOLECULE INHIBITOR AGAINST NASOPHARYNGEAL CARCINOMA, PREPARATION METHOD AND APPLICATION THEREOF” (SHENZHEN BAY LABORATORY, priority 2021, published 2024) are described below.

This assay concerns C666-1 cells. In words: C666-1 Cell Viability Assay (Resazurin cytotoxicity test). In kind it is cell-based. As to conditions: Homo sapiens, C6661, EB virus-positive C666-1 cells, 72 hours treatment, 100-0.78 micromole/L, read-out: Inhibitory Rate. The method, then: In order to evaluate the inhibitory effect of the small molecular compound of the present disclosure on EBNA1 at the cellular level, a cytotoxicity test was performed.
As mentioned in the Background of the present disclosure, nasopharyngeal carcinoma is a kind of disease highly associated with latent infection of EB virus. EB virus in latent state only expresses limited proteins to maintain its genome replication, among which EBNA1 protein is an essential functional protein. Studies have confirmed that inhibition of EBNA1 can reduce the proliferation of the corresponding nasopharyngeal carcinoma cells or kill them. Therefore, EB virus-positive nasopharyngeal carcinoma tumor cells (C666-1 cells) are selected for test to verify the effect of the small molecular compound of the present disclosure.
During testing, 100 microliters of different cell lines were inoculated onto a transparent 96-well plate, and 5×10^3 cells were inoculated in each well for C666-1 cells. After the cells were cultured in an incubator under […] at 37° C. for 24 hours, 10 microliters of compound with a concentration ranging from 1 mmol/L to 7.8 micromol/L were added to each well (8 points, double dilution, the final concentration was 100-0.78 micromole/L), and treated in the incubator under carbon dioxide at 37° C. for 72 hours. Cell viability was assessed using the redox indicator Resazurin. After addition of 10 microliters of 600 micromole/liter Resazurin to each well and incubation at 37° C. for 3 hours. Using a Tecan microplate reader, the fluorescence signals were detected at an […]. A software was used to fit the inhibition curve and calculate half-maximal effect concentration (EC50). The selectivity of compound activity was assessed by comparing the EC50 values of EB virus-positive and EB virus-negative cell lines.

Take `COC(=O)c1cccc(N2CC(Oc3ccc(COc4ccc(OC)nc4)cc3)C2)c1-n1cccc1` [Example 4, methyl 3-(3-(4-(((6-methoxypyridin-3-yl)oxy)methyl)phenoxy)azetidin-1-yl)-2-(1H-pyrrol-1-yl) benzoate]: the EC50 is more than 50 µM.

With `O=C(Cc1ccc(OC2CN(c3cccc(C(=O)O)c3-c3ccccc3)C2)cc1)Nc1cccnc1` [Example 40a, 6-(3-(4-(2-oxo-2-(pyridin-3-ylamino)ethyl)phenoxy)azetidin-1-yl)-[1,1′-biphenyl]-2-carboxylic acid], the EC50 lay within 1 to 10 µM.

Regarding `COC(=O)c1cccc(N2CC(Oc3ccc(NC(=O)Cc4cccnc4)cc3)C2)c1Cl` [Example 55, methyl 2-chloro-3-(3-(4-(2-(pyridin-3-yl)acetamido)phenoxy)azetidin-1-yl) benzoate], the EC50 lay within 1 to 10 µM.

In the case of `COC(=O)c1cccc(C#Cc2ccc(NC(=O)Nc3cccnc3)cc2)c1-c1ccc2cc[nH]c2c1` [Example 59, methyl 2-(1H-indol-6-yl)-3-((4-(3-(pyridin-3-yl)ureido)phenyl)ethynyl) benzoate], the EC50 is less than 1 µM.

Consider `COC(=O)c1cccc(N2CC(Oc3ccc(NC(=O)Cc4cccnc4)c(F)c3)C2)c1-c1ccccc1` [Example 54, methyl 6-(3-(3-fluoro-4-(2-(pyridin-3-yl)acetamido)phenoxy)azetidin-1-yl)-[1,1′-biphenyl]-2-carboxylate], for which the EC50 fell in the range of 1 to 10 µM.

For the compound `COC(=O)c1cccc(N2CC(Oc3ccc(COc4ncccn4)cc3)C2)c1-n1cccc1` [Example 11, methyl 3-(3-(4-((pyrimidin-2-yloxy)methyl)phenoxy)azetidin-1-yl)-2-(1H-pyrrol-1-yl) benzoate], the EC50 is more than 50 µM.

In the case of `COC(=O)c1cccc(N2CC(Oc3ccc(COc4cnc5ccccc5c4)cc3)C2)c1-n1cccc1` [Example 9, methyl 2-(1H-pyrrol-1-yl)-3-(3-(4-((quinolin-3-yloxy)methyl)phenoxy)azetidin-1-yl) benzoate], the EC50 is more than 50 µM.

Take `O=C(O)c1cccc(N2CC(Oc3ccc(COc4ccsn4)cc3)C2)c1-n1cccc1` [Example 33a, 3-(3-(4-((isothiazol-3-yloxy)methyl)phenoxy)azetidin-1-yl)-2-(1H-pyrrol-1-yl) benzoic acid]: the EC50 was more than 50 µM.

Take `O=C(NO)c1cccc(N2CC(Oc3ccc(CNc4cccnc4)cc3)C2)c1-c1ccccc1` [Example 39b, N-hydroxy-6-(3-(4-((pyridin-3-ylamino)methyl)phenoxy)azetidin-1-yl)-[1,1′-biphenyl]-2-carboxamide]: the EC50 was less than 1 µM.

As for `COC(=O)c1cccc(N2CC(Oc3ccc(COc4cccnc4)cc3)C2)c1-n1cccc1` [Example 1, methyl 3-(3-(4-((pyridin-3-yloxy)methyl)phenoxy)azetidin-1-yl)-2-(1H-pyrrol-1-yl) benzoate], the EC50 was in the range of 1 to 10 µM.

Consider `COC(=O)c1cccc(N2CC(Oc3ccc(COc4cncc(C)c4)cc3)C2)c1-n1cccc1` [Example 3, methyl 3-(3-(4-((5-methylpyridin-3-yloxy)methyl)phenoxy)azetidin-1-yl)-2-(1H-pyrrol-1-yl) benzoate], for which the EC50 was more than 50 µM.

`O=C(Cc1ccc(OC2CN(c3cccc(C(=O)O)c3-c3ccc4cc[nH]c4c3)C2)cc1)Nc1cccnc1` [Example 44a, 2-(1H-indol-6-yl)-3-(3-(4-(2-oxo-2-(pyridin-3-ylamino)ethyl)phenoxy)azetidin-1-yl) benzoic acid]: the EC50 fell in the range of 1 to 10 µM.

On to `COC(=O)c1cccc(N2CC(Oc3ccc(CC(=O)Nc4ccccc4)cc3)C2)c1-n1cccc1` [Example 35, methyl 3-(3-(4-(2-oxo-2-(phenylamino)ethyl)phenoxy)azetidin-1-yl)-2-(1H-pyrrol-1-yl) benzoate], for which the EC50 is more than 50 µM.

On to `COC(=O)c1cccc(N2CC(Oc3ccc(N(C)C(=O)Nc4cccc(C#N)c4)cc3)C2)c1-n1cccc1` [Example 7, methyl 3-(3-(4-(3-(3-cyanophenyl)-1-methylureido)phenoxy)azetidin-1-yl)-2-(1H-pyrrol-1-yl) benzoate], for which the EC50 lay within 10 to 50 µM.

On to `O=C(Cc1cccnc1)Nc1ccc(OC2CN(c3cccc(C(=O)O)c3-c3ccccc3)C2)cc1F` [Example 54a, 6-(3-(3-fluoro-4-(2-(pyridin-3-yl)acetamido)phenoxy)azetidin-1-yl)-[1,1′-biphenyl]-2-carboxylic acid], for which the EC50 is 1 to 10 µM.

In the case of `O=C(Cc1ccc(OC2CN(c3cccc(C(=O)NO)c3)C2)cc1)Nc1cccnc1` [Example 43b, N-hydroxy-3-(3-(4-(2-oxo-2-(pyridin-3-ylamino)ethyl)phenoxy)azetidin-1-yl) benzamide], the EC50 is less than 1 µM.

Consider `COC(=O)c1cccc(N2CC(Oc3ccc(NC(=O)Nc4cccnc4)cc3)C2)c1` [Example 50, methyl 3-(3-(4-(3-(pyridin-3-yl)ureido)phenoxy)azetidin-1-yl) benzoate], for which the EC50 lay within 1 to 10 µM.

Take `COC(=O)c1cccc(N2CC(Oc3ccc(NC(=O)Cc4cccnc4)cc3)C2)c1` [Example 49, methyl 3-(3-(4-(2-(pyridin-3-yl)acetamido)phenoxy)azetidin-1-yl) benzoate]: the EC50 was 1 to 10 µM.

As to `CONC(=O)c1cccc(N2CC(Oc3ccc(NC(=O)Cc4cccnc4)cc3)C2)c1-c1ccccc1` [Example 45d, N-methoxy-6-(3-(4-(2-(pyridin-3-yl)acetamido)phenoxy)azetidin-1-yl)-[1,1′-biphenyl]-2-carboxamide], the EC50 lay within 10 to 50 µM.

For `O=C(Cc1cccnc1)Nc1ccc(OC2CN(c3cccc(C(=O)O)c3)C2)cc1` [Example 49a, 3-(3-(4-(2-(pyridin-3-yl)acetamido)phenoxy)azetidin-1-yl) benzoic acid], the EC50 was 10 to 50 µM.

With `O=C(O)c1cccc(N2CC(Oc3ccc(COc4cccnc4)cc3)C2)c1-c1ccccc1` [Example 17a, 6-(3-(4-((pyridin-3-yloxy)methyl)phenoxy)azetidin-1-yl)-[1,1′-biphenyl]-2-carboxylic acid], the EC50 lay in the range of 1 to 10 µM.

For `O=C(Cc1cccnc1)Nc1ccc(OC2CN(c3cccc(C(=O)O)c3-c3cccc(Cl)c3)C2)cc1` [Example 48a, 3′-chloro-6-(3-(4-(2-(pyridin-3-yl)acetamido)phenoxy)azetidin-1-yl)-[1,1′-biphenyl]-2-carboxylic acid], the EC50 lay within 10 to 50 µM.

As for `O=C(NO)c1cccc(N2CC(Oc3ccc(CNc4cccnc4)cc3)C2)c1-c1cccc(Cl)c1` [Example 38b, 3′-chloro-N-hydroxy-6-(3-(4-((pyridin-3-ylamino)methyl)phenoxy)azetidin-1-yl)-[1,1′-biphenyl]-2-carboxamide], the EC50 is less than 1 µM.

Take `COC(=O)c1cccc(N2CC(Oc3ccc(COc4cccs4)cc3)C2)c1-n1cccc1` [Example 30, methyl 2-(1H-pyrrol-1-yl)-3-(3-(4-((thiophen-2-yloxy)methyl)phenoxy)azetidin-1-yl) benzoate]: the EC50 is more than 50 µM.

`Cc1c(C(=O)O)cccc1N1CC(Oc2ccc(NC(=O)Cc3cccnc3)cc2)C1` [Example 53a, 2-methyl-3-(3-(4-(2-(pyridin-3-yl)acetamido)phenoxy)azetidin-1-yl) benzoic acid]: the EC50 was in the range of 10 to 50 µM.

Take `O=C(Nc1ccc(C#Cc2cccc(C(=O)O)c2-c2ccc3cc[nH]c3c2)cc1)Nc1cccnc1` [Example 59a, 2-(1H-indol-6-yl)-3-((4-(3-(pyridin-3-yl)ureido)phenyl)ethynyl) benzoic acid]: the EC50 is less than 1 µM.

For `CN(C(=O)Nc1cccc(C#N)c1)c1ccc(OC2CN(c3cccc(C(=O)O)c3-n3cccc3)C2)cc1` [Example 7a, 3-(3-(4-(3-(3-cyanophenyl)-1 - methylureido)phenoxy)azetidin-1-yl)-2-(1H-pyrrol-1-yl) benzoic acid], the EC50 fell in the range of 10 to 50 µM.

As for `CNC(=O)c1cccc(N2CC(Oc3ccc(NC(=O)Cc4cccnc4)cc3)C2)c1-c1ccccc1` [Example 45c, N-methyl-6-(3-(4-(2-(pyridin-3-yl)acetamido)phenoxy)azetidin-1-yl)-[1,1′-biphenyl]-2-carboxamide], the EC50 was less than 1 µM.

For `COC(=O)c1cccc(N2CC(Oc3ccc(/C=C/c4cccnc4)cc3)C2)c1-c1ccccc1` [Example 36, methyl (E)-6-(3-(4-(2-(pyridin-3-yl)vinyl)phenoxy)azetidin-1-yl)-[1,1′-biphenyl]-2-carboxylate], the EC50 was in the range of 10 to 50 µM.

Regarding `O=C(Nc1ccc(OC2CN(c3cccc(C(=O)O)c3-n3cccc3)C2)cc1)Nc1cncc(F)c1` [Example 46a, 3-(3-(4-(3-(5-fluoropyridin-3-yl)ureido)phenoxy)azetidin-1-yl)-2-(1H-pyrrol-1-yl) benzoic acid], the EC50 is 1 to 10 µM.

With `COC(=O)c1cccc(N2CC(Oc3ccc(OCc4cccnc4)cc3)C2)c1-n1cccc1` [Example 24, methyl 3-(3-(4-(pyridin-3-ylmethoxy)phenoxy)azetidin-1-yl)-2-(1H-pyrrol-1-yl) benzoate], the EC50 fell in the range of 1 to 10 µM.

Take `O=C(Nc1ccc(OC2CN(c3cccc(C(=O)O)c3-n3cccc3)C2)cc1)Nc1cccc(C(F)(F)F)c1` [Example 10a, 2-(1H-pyrol-1-yl)-3-(3-(4-(3-(3-(trifluoromethyl)phenyl)ureido)phenoxy)azetidin-1-yl) benzoic acid]: the EC50 was 10 to 50 µM.
